Biological target: T1, human S1P1 receptors (Homo sapiens, UniProt P21453)
T1 construct: host or cells: HEK293
Assay: S1P1R antagonist assay (fluorescent membrane potential dye, cAMP readout)
Assay type: cell-based
Conditions: HEK293 cells expressing human S1P1 receptors and CNG channel; 500 nM NECA; S1P1R agonist 10 nM; 90 minutes; read-out: EC50 or IC50 value
Text: The S1P1R antagonist assay is a fluorescent membrane potential dye measurement assay, indicative of intracellular cAMP changes due to G protein-coupled receptor activation. HEK293 cells engineered to express human S1P1 receptors and a cyclic nucleotide-gated (CNG) channel are obtained from BD Biosciences, 80300-250. The CNG channels are activated by elevated levels of cAMP, resulting in ion flux and cell membrane depolarization. Membrane depolarization is detected with a membrane potential dye. Stimulation of the cells with 5′-(N-ethylcarboxamido)adenosine (NECA), an A2b receptor agonist (Sigma, E2387), elicits an A2bR-dependent increase in cAMP.
Subsequent exposure of the cells to a S1P1R agonist suppresses the NECA induced increase in cAMP through S1P1R-specific signaling by inhibiting adenylyl cyclase and the formation of cAMP from ATP. The degree to which a test compound overcomes the S1P1R agonist suppression of the NECA induced increase in cAMP is a measure of S1P1R antagonist activity. Antagonist activity is quantified as the IC50 (i.e., the concentration needed to elicited one-half of the maximum response of the test compound) and/or as the EC50 (i.e., the concentration needed to elicited one-half of the NECA induced stimulation).
Day 1: Freshly thawed cells were plated into 384-well plates (Corning, 3683) at a density of 14,000 cells/well in 20 μL, complete media and incubated for 16 hours at 37° C., 5% CO2 and 99% relative humidity. Complete media included Dulbecco's modified Eagle's medium (Invitrogen, 11965-092), 10% Fetal bovine serum (Hyclone, SH30071.03), 250 μg/mL geneticin (Invitrogen, 10131-027), and 1 μg/mL Puromycin (Fluka, 82595).
Day 2: Membrane potential dye (20 μL, BD Biosciences, 341833) was added to each well and the plates were incubated for 2.5 hours at ambient temperature. Test compounds (20 μL) were added to the wells at various concentrations (≦10 μM, 1 to 3 dilutions) in a NECA base solution and incubated for 90 minutes in the presence of the S1P1R agonist {4-((4-phenyl-5-trifluoromethyl-2-thienyl)methoxy)benzyl}-3-azetidinecarboxylic acid (10 nM). The NECA-base solution contained Dulbecco's phosphate-buffered saline (Invitrogen, 14190-136), 2.5% DMSO (Fluka, 41648), 25 μM Ro 20-1724 (Sigma, B8279), and 500 nM NECA).
Assay plates were read with a PerkinElmer EnVision reader (Excitation 350 nm, Emission 590 nm) at time T=0 minutes, before compound addition and at time T=90 minutes. The signal was calculated as the ratio T90/T0. Data was analyzed in ActivityBase XE and graphs showing log of compound concentration (X-axis) vs. % activity (Y-axis) were generated for IC50 determinations. Percent activity was calculated with the following formula: (Signal−Agonist Control Signal)/(NECA Control Signal−Agonist Control Signal)×100.

T1 sequence (P21453 whole entry): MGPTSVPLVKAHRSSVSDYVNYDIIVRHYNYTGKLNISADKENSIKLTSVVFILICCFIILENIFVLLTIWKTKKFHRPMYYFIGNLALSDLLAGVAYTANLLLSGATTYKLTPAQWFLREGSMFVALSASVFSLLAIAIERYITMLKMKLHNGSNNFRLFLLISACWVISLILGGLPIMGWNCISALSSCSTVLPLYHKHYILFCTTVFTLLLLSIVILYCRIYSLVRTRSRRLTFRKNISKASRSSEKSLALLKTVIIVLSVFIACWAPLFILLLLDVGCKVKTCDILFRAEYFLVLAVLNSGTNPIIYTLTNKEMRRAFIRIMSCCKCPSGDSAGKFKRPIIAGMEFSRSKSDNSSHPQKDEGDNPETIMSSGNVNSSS

IC50 [nM]	SMILES
≤ 300	O=C(Nc1ccc(Oc2ccc(F)cc2)cc1)[C@@H]1C[C@@H](Cc2ccccc2Cl)CN1C(=O)Cn1nccn1 [Compound 56, (2S,4R)-1-(2-(2H-1,2,3-triazol-2-yl)acetyl)-4-(2-chlorobenzyl)-N-(4-(4-fluorophenoxy)phenyl)pyrrolidine-2-carboxamide]
≤ 300	O=C(Nc1ccc(Oc2ccc(F)cc2)cc1)[C@@H]1C[C@@H](Cc2ccccc2Cl)CN1C(=O)Cn1cncn1 [Compound 57, (2S,4R)-1-(2-(1H-1,2,4-triazol-1-yl)acetyl)-4-(2-chlorobenzyl)-N-(4-(4-fluorophenoxy)phenyl)pyrrolidine-2-carboxamide]
≤ 300	O=C(Nc1ccc(Oc2ccc(F)cc2)cc1)[C@@H]1C[C@@H](Cc2ccccc2)CN1C(=O)Cn1nccn1 [Compound 58, (2S,4R)-1-(2-(2H-1,2,3-triazol-2-yl)acetyl)-4-benzyl-N-(4-(4-fluorophenoxy)phenyl)pyrrolidine-2-carboxamide]
300 to 1000	O=C(Cc1c[nH]cn1)N[C@@H](COCc1ccccc1)c1nc2cc(Oc3ccc(F)cc3)ccc2[nH]1 [Compound 59, (R)—N-(2-(benzyloxy)-1-(5-(4-fluorophenoxy)-1H-benzo[d]imidazol-2-yl)ethyl)-2-(1H-imidazol-4-yl)acetamide]
> 1000	CC(=O)N[C@@H](COCc1ccccc1)c1nc2cc(Oc3ccc(F)cc3)ccc2[nH]1 [Compound 60, (R)—N-(2-(benzyloxy)-1-(5-(4-fluorophenoxy)-1H-benzo[d]imidazol-2-yl)ethyl)acetamide]
≤ 300	O=C(Nc1ccc(Oc2ccc(F)cc2)cc1)[C@@H]1C[C@@H](Cc2cccc(Cl)c2)CN1C(=O)Cn1cncn1 [Compound 61, (2S,4R)-1-(2-(1H-1,2,4-triazol-1-yl)acetyl)-4-(3-chlorobenzyl)-N-(4-(4-fluorophenoxy)phenyl)pyrrolidine-2-carboxamide]
≤ 300	COc1ccc([C@@H]2C[C@@H](C(=O)Nc3ccc(Oc4ccc(F)cc4)cc3)N(C(=O)Cn3cncn3)C2)cc1 [Compound 62, (2S,4S)-1-(2-(1H-1,2,4-triazol-1-yl)acetyl)-N-(4-(4-fluorophenoxy)phenyl)-4-(4-methoxyphenyl)pyrrolidine-2-carboxamide]
> 1000	CC1CCCN1CC(=O)N[C@@H](COCc1ccccc1)C(=O)Nc1ccc(Oc2ccc(F)cc2)cc1 (stereo partly drawn) [Compound 63, (2S)-3-(benzyloxy)-N-(4-(4-fluorophenoxy)phenyl)-2-(2-(2-methylpyrrolidin-1-yl)acetamido)propanamide]
≤ 300	O=C(Nc1ccc(Oc2ccc(F)cc2)cc1)[C@@H]1C[C@@H](Cc2cccs2)CN1C(=O)Cn1nccn1 [Compound 64, (2S,4S)-1-(2-(2H-1,2,3-triazol-2-yl)acetyl)-N-(4-(4-fluorophenoxy)phenyl)-4-(thien-2-ylmethyl)pyrrolidine-2-carboxamide]
≤ 300	O=C(Nc1ccc(Oc2ccc(F)cc2)cc1)[C@@H]1C[C@@H](Cc2ccc(Cl)s2)CN1C(=O)Cn1ccnn1 [Compound 65, (2S,4S)-1-(2-(1H-1,2,3-triazol-1-yl)acetyl)-4-((5-chlorothien-2-yl)methyl)-N-(4-(4-fluorophenoxy)phenyl)pyrrolidine-2-carboxamide]
≤ 300	O=C(Nc1ccc(Oc2ccc(F)cc2)cc1)[C@@H]1C[C@@H](Cc2ccc(Cl)s2)CN1C(=O)Cn1nccn1 [Compound 66, (2S,4S)-1-(2-(2H-1,2,3-triazol-2-yl)acetyl)-4-((5-chlorothien-2-yl)methyl)-N-(4-(4-fluorophenoxy)phenyl)pyrrolidine-2-carboxamide]
≤ 300	O=C(Nc1ccc(Oc2ccc(F)cc2)cc1)[C@@H]1C[C@@H](Cc2ccc(Cl)s2)CN1C(=O)Cn1cncn1 [Compound 67, (2S,4S)-1-(2-(1H-1,2,4-triazol-1-yl)acetyl)-4-((5-chlorothien-2-yl)methyl)-N-(4-(4-fluorophenoxy)phenyl)pyrrolidine-2-carboxamide]
≤ 300	COc1cccc(C[C@@H]2C[C@@H](C(=O)Nc3ccc(Oc4ccc(F)cc4)cc3)N(C(=O)Cn3ccnn3)C2)c1 [Compound 68, (2S,4R)-1-(2-(1H-1,2,3-triazol-1-yl)acetyl)-N-(4-(4-fluorophenoxy)phenyl)-4-(3-methoxybenzyl)pyrrolidine-2-carboxamide]
≤ 300	COc1cccc(C[C@@H]2C[C@@H](C(=O)Nc3ccc(Oc4ccc(F)cc4)cc3)N(C(=O)Cn3nccn3)C2)c1 [Compound 69, (2S,4R)-1-(2-(2H-1,2,3-triazol-2-yl)acetyl)-N-(4-(4-fluorophenoxy)phenyl)-4-(3-methoxybenzyl)pyrrolidine-2-carboxamide]
≤ 300	COc1cccc(C[C@@H]2C[C@@H](C(=O)Nc3ccc(Oc4ccc(F)cc4)cc3)N(C(=O)Cn3cncn3)C2)c1 [Compound 70, (2S,4R)-1-(2-(1H-1,2,4-triazol-1-yl)acetyl)-N-(4-(4-fluorophenoxy)phenyl)-4-(3-methoxybenzyl)pyrrolidine-2-carboxamide]
≤ 300	O=C(Nc1ccc(Oc2ccc(F)cc2)cc1)[C@@H]1C[C@@H](Cc2ccc(F)cc2)C(=O)N1C(=O)Cn1cncn1 [Compound 71, (2S,4R)-1-(2-(1H-1,2,4-triazol-1-yl)acetyl)-4-(4-fluorobenzyl)-N-(4-(4-fluorophenoxy)phenyl)-5-oxopyrrolidine-2-carboxamide]
≤ 300	O=C(Nc1ccc(Oc2ccc(F)cc2)cc1)[C@@H]1C[C@@H](Cc2ccsc2)CN1C(=O)Cn1cncn1 [Compound 72, (2S,4R)-1-(2-(1H-1,2,4-triazol-1-yl)acetyl)-N-(4-(4-fluorophenoxy)phenyl)-4-(thiophen-3-ylmethyl)pyrrolidine-2-carboxamide]
≤ 300	Cc1cc(Oc2ccc(NC(=O)[C@@H]3C[C@@H](Cc4ccc(F)cc4)CN3C(=O)Cn3cncn3)cc2)ccc1F [Compound 73, (2S,4R)-1-(2-(1H-1,2,4-triazol-1-yl)acetyl)-N-(4-(4-fluoro-3-methylphenoxy)phenyl)-4-(4-fluorobenzyl)pyrrolidine-2-carboxamide]
≤ 300	Cc1cc(F)ccc1Oc1ccc(NC(=O)[C@@H]2C[C@@H](Cc3ccc(F)cc3)CN2C(=O)Cn2cncn2)cc1 [Compound 74, (2S,4R)-1-(2-(1H-1,2,4-triazol-1-yl)acetyl)-N-(4-(4-fluoro-2-methylphenoxy)phenyl)-4-(4-fluorobenzyl)pyrrolidine-2-carboxamide]
≤ 300	O=C(Nc1ccc(Oc2ccc(F)cc2)cc1)[C@@H]1C[C@@H](Cc2ccc(F)cc2)CN1C(=O)Cn1ccnn1 [Compound 75, (2S,4R)-1-(2-(1H-1,2,3-triazol-1-yl)acetyl)-4-(4-fluorobenzyl)-N-(4-(4-fluorophenoxy)phenyl)pyrrolidine-2-carboxamide]
≤ 300	O=C(Nc1ccc(Oc2ccc(F)cc2)cc1)[C@@H]1C[C@H](Cc2ccc(F)cc2)CN1C(=O)Cn1cncn1 [Compound 76, (2S,4S)-1-(2-(1H-1,2,4-triazol-1-yl)acetyl)-4-(4-fluorobenzyl)-N-(4-(4-fluorophenoxy)phenyl)pyrrolidine-2-carboxamide]
300 to 1000	O=C(Nc1ccc(Oc2ccc(F)cc2)cc1)[C@@H]1C[C@@H](c2ccccc2)CN1C(=O)Cn1nccn1 [Compound 77, (2S,4S)-1-(2-(2H-1,2,3-triazol-2-yl)acetyl)-N-(4-(4-fluorophenoxy)phenyl)-4-phenylpyrrolidine-2-carboxamide]
300 to 1000	O=C(Nc1ccc(Oc2ccc(F)cc2)cc1)[C@@H]1C[C@@H](c2ccccc2)CN1C(=O)Cn1cncn1 [Compound 78, (2S,4S)-1-(2-(1H-1,2,4-triazol-1-yl)acetyl)-N-(4-(4-fluorophenoxy)phenyl)-4-phenylpyrrolidine-2-carboxamide]
≤ 300	O=C(Nc1ccc(Oc2ccc(Cl)cc2)cc1)[C@@H]1C[C@@H](Cc2ccccc2)CN1C(=O)Cn1cncn1 [Compound 79, (2S,4R)-1-(2-(1H-1,2,4-triazol-1-yl)acetyl)-4-benzyl-N-(4-(4-chlorophenoxy)phenyl)pyrrolidine-2-carboxamide]
300 to 1000	O=C(Nc1ccc(Oc2ccc(F)cc2)cc1)[C@@H]1C[C@H](NCc2ccccc2)CN1C(=O)Cn1cncn1 [Compound 80, (2S,4S)-1-(2-(1H-1,2,4-triazol-1-yl)acetyl)-4-(benzylamino)-N-(4-(4-fluorophenoxy)phenyl)pyrrolidine-2-carboxamide]

Source: patent US8791102B2, “Acetanilide sphingosine-1-phosphate receptor antagonists” (Exelixis, Inc., priority 2008, dated 2014)
